Earlier results on one compound are cited in patent publication US20230181552A1, “EXTERNAL PREPARATION OF IMIDACLOPRID, PREPARATION METHOD AND USE THEREOF” (Qingdao Bolin Biological Technology Co., Ltd., priority 2021, published 2023).

Data set [1] relates to postsynaptic nicotinic acetylcholine receptors in the central nervous system of insects. Particulars: background statement.
The test system of data set [2] is nicotinic receptor sites of mammals. The settings on record: background statement.
For data set [3], the system named is rabbits, mice and rats. Particulars: sublethal doses, systemic use.

Turning to `O=[N+]([O-])NC1=NCCN1Cc1ccc(Cl)nc1` [Imidacloprid, imidacloprid], the “affinity for postsynaptic nicotinic acetylcholine receptors in the central nervous system of insects” value in data set [1] is reported as “high affinity”. Moreover, the “affinity to nicotinic receptor sites of mammals” value in data set [2] was “weak affinity”. The “pharmacological activity in mammals” value in data set [3] was “little pharmacological activity”.
